A value given as a limit tells only on which side of the number the result lay.

For 20 molecules, IC50 results are on record in BindingDB's records for doi:10.1016/j.bioorg.2016.01.001 (Indian Institute of Integrative Medicine, 2016).

The assay has as its target T1, Tyrosinase (Mus musculus, UniProt P11344).
T1 sequence (P11344 whole entry): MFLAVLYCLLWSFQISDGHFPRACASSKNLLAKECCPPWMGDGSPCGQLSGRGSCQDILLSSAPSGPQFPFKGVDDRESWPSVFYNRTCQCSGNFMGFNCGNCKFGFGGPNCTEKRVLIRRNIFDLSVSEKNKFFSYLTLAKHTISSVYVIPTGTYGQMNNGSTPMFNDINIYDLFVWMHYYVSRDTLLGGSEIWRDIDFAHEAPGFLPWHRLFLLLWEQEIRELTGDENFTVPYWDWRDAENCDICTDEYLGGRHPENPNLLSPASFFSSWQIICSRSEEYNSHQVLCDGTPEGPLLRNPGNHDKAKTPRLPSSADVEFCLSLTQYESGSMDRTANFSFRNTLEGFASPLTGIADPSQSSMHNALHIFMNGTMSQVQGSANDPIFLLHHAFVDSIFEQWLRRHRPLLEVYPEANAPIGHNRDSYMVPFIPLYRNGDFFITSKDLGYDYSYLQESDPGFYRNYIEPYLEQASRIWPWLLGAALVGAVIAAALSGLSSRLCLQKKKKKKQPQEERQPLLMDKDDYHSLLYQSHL
Nature of the assay: Tyrosinase Activity. The note with it: pH 6.8. Here is the method: The reaction mixture contained 50 mM phosphate buffer, pH 6.8, 0.05% L-DOPA and the supernatant (tyrosinase). After incubation in the absence or presence of various stilbene derivatives (with varying concentrations ranging from 1 µg/mL to 100 µg/mL) at 37 °C for 20 min, dopachrome was monitored by measuring absorbanceat wavelength 492 nm by using a Molecular Devices microplate reader.
Usually IC50 stands for the concentration at which inhibition is half-maximal. For the molecule `COc1ccc(/C=C\c2cc(OC)c(OC)c(OC)c2)cc1` [1,2,3-Trimethoxy-5-[(Z)-2-(4-methoxy-phenyl)-vinyl]-benzene], the IC50 is > 500 µM.
`Oc1ccc(/C=C/c2cc(O)cc(O)c2)cc1` [5-[(E)-2-(4-hydroxyphenyl)ethenyl]benzene-1,3-diol] gave an IC50 of 10.8 µM.
Take `N#C/C(=C/c1ccc(O)cc1)c1ccc(O)cc1` [(E)-2,3-bis(4-Hydroxyphenyl)acrylonitrile (21)]: the IC50 worked out at 5.06 µM.
Under `N#C/C(=C/c1cccnc1)c1ccc(O)cc1` [(E)-2-(4-Hydroxyphenyl)-3-(pyridin-3-yl)acrylonitrile (22)] stands 270 µM; under `COc1ccc(/C=C(/C=O)c2ccccc2)cc1` [(E)-3-(4-Methoxyphenyl)-2-phenylpropenal (20)], 276 µM; under `COC(=O)/C(=C/c1ccc(O)c(OC)c1)c1ccc(OC)cc1` [(E)-Methyl-3-(4-hydroxy-3-methoxyphenyl)-2-(4-methoxyphenyl)acrylate (19)], > 500 µM.
`Fc1c(F)c(F)c(/C=C\c2ccccc2)c(F)c1F` [Trans-1,2,3,4,5-Pentafluoro-6-styryl-benzene (14)]: the IC50 was > 500 µM.
Turning to `C(=C\c1ccccc1)/c1ccccc1` [Trans-1,2-Diphenylethene (1)], the IC50 is > 500 µM.
Molecule `Fc1cc(F)cc(/C=C\c2ccccc2)c1` [Trans-1,3-Difluoro-5-styrylbenzene (12)] came in with an IC50 of 394 µM.
The molecule `Brc1ccc(/C=C\c2ccccc2)cc1` [Trans-1-Bromo-4-styrylbenzene (4)] registered an IC50 of 277 µM.
Turning to `Clc1ccc(/C=C\c2ccccc2)cc1` [Trans-1-Chloro-4-styrylbenzene (3)], the IC50 came to 320 µM.
Regarding `Fc1ccc(/C=C\c2ccccc2)cc1` [Trans-1-Fluoro-4-styryl-benzene (2)], the IC50 worked out at 79.4 µM.
For the molecule `COc1ccc(/C=C\c2ccccc2)cc1` [Trans-1-Methoxy-4-styryl-benzene (9)], inhibition was half-maximal at 433 µM (IC50).
`O=[N+]([O-])c1ccc(/C=C\c2ccccc2)cc1` [Trans-1-Nitro-4-styrylbenzene (5)]: the IC50 turned out to be 361 µM.
The molecule `COc1ccc(/C=C\c2ccc(F)cc2)cc1` [Trans-1-fluoro-4-(4-methoxystyryl)benzene (10)] had an IC50 of 50 µM.
For the molecule `COc1ccc(/C=C\c2ccccc2)cc1Br` [Trans-2-Bromo-1-methoxy-4-styryl-benzene (11)], the IC50 came out at 56.2 µM.
`Oc1ccc(/C=C\c2ccccc2)cc1` [Trans-4-Styryl-phenol (8)] showed an IC50 of 17.4 µM.
As to `N#Cc1ccc(/C=C\c2ccccc2)cc1` [Trans-4-Styrylbenzonitrile (6)], the IC50 was 50 µM. This IC50 is about 2.9-fold higher than that of the molecule before.
In the case of `C(=C/c1c2ccccc2cc2ccccc12)/c1ccccc1` [Trans-9-Styryl-anthracene (15)], the IC50 was determined as 166 µM.
`CC(=O)Oc1ccc(C=Cc2ccccc2)cc1` [Trans-Acetic acid 4-styryl-phenyl ester (7)]: the IC50 is > 500 µM.
